Test system: Macrophomina phaseolina
Test: Strawberry pot trial in the greenhouse, soil drench at planting, efficacy against Macrophomina phaseolina
Assay type: in vivo
Conditions: 250 g AI/ha drench at planting, strawberry 'Sweet Ann'; for Pest severity (IS 0-5; 0 = no damage, 5 = severe damage): 6 replications
Protocol: A strawberry pot trial was carried out in the greenhouse Vero Beach, United States to evaluate the efficacy of different compounds against Macrophomina phaseolina.
The plants were planted in 4 L pots with Vero Beach Mix (50% potting media and 50% pasteurized sand). The plants were bare root strawberry of the variety ‘Sweet Ann’. The strawberry plants were partially planted, then were inoculated with 2 grams of the infested millet. The inoculum was grown on twice sterilized millet for 1-2 weeks. The isolate used was originally isolated from strawberry. After the inoculation the roots were completely covered. At the day of planting each plant was drench applied with 100 mL of compound solution. The application dose was calculated based on a plant spacing of 30.5 cm by 45.7 cm. The plants were grown in a greenhouse that averaged 32° C. in the day and 21° C. at night. Plants were watered daily. The disease severity was evaluated after 44 and 65 days after application using a […] index scale (5=severe damage, 0=no damage).

[1] = 65 days after application (second assessment)

O=C(NCCc1ncc(C(F)(F)F)cc1Cl)c1ccccc1C(F)(F)F [Fluopyram]
% efficacy based on disease incidence (44 days after planting): 44.33% | Pest severity (IS 0-5; 0 = no damage, 5 = severe damage) (44 days after planting): 1.67,A | % efficacy based on disease incidence [1]: 1.60% | Pest severity (IS 0-5; 0 = no damage, 5 = severe damage) [1]: 4.92,A

— patent US20230042612A1, “METHODS OF CONTROLLING OR PREVENTING INFESTATION OF PLANTS BY A PHYTOPATHOGENIC MICROORGANISM OF THE GENUS MACROPHOMINA SPP” (SYNGENTA CROP PROTECTION AG, priority 2019, published 2023)
